Laboratory results taken from US20040023972A1, “Use of substituted imidazo[1,2-a]-pyridin-, -pyrimidin-and-pyrazin-3-yl-amine derivatives in the preparation of medicaments for inhibiting NOS” (Gruenenthal GmbH, priority 2000, published 2004).

Target: T1, NO synthase (Rattus norvegicus, UniProt P29476)
T1 construct: the supernatant was then removed by decantation and frozen in portions at −80° C; from tissue; host or cells: rat cerebellum, 20,000 g supernatant of homogenate
Experiment: HTS-NOS assay (NOS assay): conversion of radioactive arginine, cation-exchanger filter plate
Type: biochemical
Details: 10 μM
Outline: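 Percent inhibition was derived by comparing remaining radioactive arginine with compound-free controls. Arginine retained on phosphate cation-exchanger filters was counted after citrulline washout, following a 5-60 min room-temperature (25 °C) reaction of labelled arginine, NADPH-containing medium and rat cerebellar homogenate supernatant.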

HTS-NOS assay: % inhibition (10 μM)	Compound
61%	CC(=O)N(c1c(-c2ccccc2C(F)(F)F)nc2cc(C)ccn12)C1CCCCC1 [Example 164, N-cyclohexyl-N-[7-methyl-2-(2-trifluorO-methyl-phenyl)-imidazo[1,2-a]pyridin-3-yl]-acetamide]
68%	CC(=O)OCc1ccc(-c2nc3cc(C)ccn3c2N(C(C)=O)C2CCCCC2)o1 [Example 167, acetic acid 5-[3-(acetyl-cyclohexyl-amino)-7-methyl-imidazo[1,2-a]pyridin-2-yl]-furan-2-yl methyl ester]

Same assay, conditions: read-out: HTS-NOS assay: % inhibition (10 μM)

Compound	inhibition at 10 µM
CC(=O)N(c1c(-c2ccco2)nc2c(Br)cc(Br)cn12)C(C)(C)CC(C)(C)C [Example 165, N-(6,8-dibromo-2-furan-2-yl-imidazo[1,2-a]pyridin-3-yl)-N-(1,1,3,3-tetramethylbutyl)-acetamide]	67%
CC(=O)N(c1c(-c2ccncc2)nc2cc(C)ccn12)C(C)(C)CC(C)(C)C [Example 166, N-(7-methyl-2-pyridin-4-yl-imidazo[1,2-a]pyridin-3-yl)-N-(1,1,3,3-tetramethylbutyl)-acetamide]	61%
CC(=O)N(c1c(-c2cccnc2)nc2cc(C)ccn12)C(C)(C)CC(C)(C)C [Example 168, N-(7-methyl-2-pyridin-3-yl-imidazo[1,2-a]pyridin-3-yl)-N-(1,1,3,3-tetramethylbutyl)-acetamide]	56%
CC(=O)N(c1c(C)cccc1C)c1c(-c2cccc(Cl)c2Cl)nc2cc(C)cc(C)n12 [Example 169, N-[2-(2,3-dichloro-phenyl)-5,7-dimethyl-imidazo[1,2-a]pyridin-3-yl]-N-(2,6-dimethyl-phenyl)-acetamide]	57%
CC(=O)N(c1c(-c2ccc(C)o2)nc2cc(C)cc(C)n12)C1CCCCC1 [Example 170, N-cyclohexyl-N-[5,7-dimethyl-2-(5-methyl-furan-2-yl)-imidazo[1,2-a]pyridin-3-yl]-acetamide]	65%
CCCCN(C(C)=O)c1c(-c2cccc(OC)c2OC)nc2cc(C)cc(C)n12 [Example 171, N-butyl-N-[2-(2,3-dimethoxy-phenyl)-5,7-dimethyl-imidazo[1,2-a]pyridin-3-yl]-acetamide]	63%
COc1ccccc1-c1nc2cc(C)cc(C)n2c1N(C(C)=O)C(C)(C)CC(C)(C)C [Example 172, N-[2-(2-methoxy-phenyl)-5,7-dimethyl-imidazo[1,2-a]pyridin-3-yl]-N-(1,1,3,3-tetramethyl-butyl)-acetamide]	62%
CC(=O)N(c1c(-c2ccc([N+](=O)[O-])o2)nc2cc(C)cc(C)n12)C1CCCCC1 [Example 173, N-cyclohexyl-N-[5,7-dimethyl-2-(5-nitro-furan-2-yl)-imidazo[1,2-a]pyridin-3-yl]-acetamide]	67%
COC(=O)CN(C(C)=O)c1c(C)nc2cc(C)ccn12 [Example 174, [acetyl-(2,7-dimethyl-imidazo[1,2-a]pyridin-3-yl)-amino]-acetic acid methyl ester]	68%
CC(=O)N(c1c(C)nc2cc(C)cc(C)n12)C1CCCCC1 [Example 175, N-cyclohexyl-N-(2,5,7-trimethyl-imidazo[1,2-a]pyridin-3-yl)-acetamide]	52%
CC(=O)N(c1c(-c2ccc(C(=O)O)s2)nc2ccccn12)C(C)(C)CC(C)(C)C [Example 176, 5-{3-[acetyl-(1,1,3,3-tetramethyl-butyl)-amino]-imidazo[1,2-a]pyridin-2-yl}-thiophene-2-carboxylic acid]	50%
CC(=O)N(c1c(-c2ccc(Cl)cc2Cl)nc2cc(C)cc(C)n12)C(C)(C)CC(C)(C)C [Example 177, N-[2-(2,4-dichloro-phenyl)-5,7-dimethyl-imidazo[1,2-a]pyridin-3-yl]-N-(1,1,3,3-tetramethyl-butyl)-acetamide]	67%
CC(=O)N(c1c(-c2ccc([N+](=O)[O-])o2)nc2cc(C)ccn12)C1CCCCC1 [Example 178, N-cyclohexyl-N-[7-methyl-2-(5-nitro-furan-2-yl)-imidazo[1,2-a]pyridin-3-yl]-acetamide]	64%
CC(=O)N(c1c(C)cccc1C)c1c(C(C)(C)C)nc2cc(C)cc(C)n12 [Example 179, N-(2-tert-butyl-5,7-dimethyl-imidazo[1,2-a]pyridin-3-yl)-N-(2,6-dimethylphenyl)-acetamide]	60%
COc1ccccc1-c1nc2cc(C)cc(C)n2c1N(C(C)=O)c1c(C)cccc1C [Example 180, N-(2,6-dimethyl-phenyl)-N-[2-(2-methoxy-phenyl)-5,7-dimethyl-imidazo[1,2-a]-pyridin-3-yl]-acetamide]	54%
CC(=O)N(c1c(-c2cccc(O)c2)nc2cc(C)cc(C)n12)C(C)(C)CC(C)(C)C [Example 181, N-[2-(3-hydroxy-phenyl)-5,7-dimethyl-imidazo[1,2-a]pyridin-3-yl]-N-(1,1,3,3-tetramethyl-butyl)-acetamide]	60%
CC(=O)N(c1c(C)cccc1C)c1c(-c2ccccc2F)nc2cc(C)cc(C)n12 [Example 182, N-(2,6-dimethyl-phenyl)-N-[2-(2-fluoro-phenyl)-5,7-dimethyl-imidazo[1,2-a]-pyridin-3-yl]-acetamide]	53%
CC(=O)N(c1c(-c2ccc(C(=O)O)s2)nc2cccc(C)n12)C(C)(C)C [Example 183, 5-[3-(acetyl-tert-butyl-amino)-5-methyl-imidazo[1,2-a]pyridin-2-yl]-thiophene-2-carboxylic acid]	50%

More lines, now with the values ahead:

inhibition at 10 µM	Compound
51%	COc1ccccc1-c1nc2cc(C)ccn2c1N(C(C)=O)c1c(C)cccc1C [Example 184, N-(2,6-dimethyl-phenyl)-N-[2-(2-methoxy-phenyl)-7-methyl-imidazo[1,2-a]-pyridin-3-yl]-acetamide]
55%	CC(=O)N(c1c(-c2ccc(C)cc2)nc2cc(C)ccn12)C(C)(C)CC(C)(C)C [Example 185, N-(7-methyl-2-p-tolyl-imidazo[1,2-a]pyridin-3-yl)-N-(1,1,3,3-tetramethyl-butyl)-acetamide]
65%	CC(=O)N(c1c(-c2ccc(C(=O)O)o2)nc2cc(C)ccn12)C(C)(C)CC(C)(C)C [Example 186, 5-{3-[acetyl-(1,1,3,3-tetramethyl-butyl)-amino]-7-methyl-imidazo[1,2-a]pyridin-2-yl}-furan-2-carboxylic acid]
67%	CC(=O)N(c1c(-c2cccnc2)nc2cc(C)ccn12)C1CCCCC1 [Example 187, N-cyclohexyl-N-(7-methyl-2-pyridin-3-yl-imidazo[1,2-a]pyridin-3-yl)-acetamide]
50%	CC(=O)N(c1c(-c2ccc(C3OCCO3)o2)nc2cc(C)cc(C)n12)C(C)(C)CC(C)(C)C [Example 188, N-[2-(5-[1,3]dioxolan-2-yl-furan-2-yl)-5,7-dimethyl-imidazo[1,2-a]pyridin-3-yl]-N-(1,1,3,3-tetramethyl-butyl)-acetamide]
63%	CC(=O)N(c1c(C)cccc1C)c1c(-c2cc3ccccc3o2)nc2cc(C)cc(C)n12 [Example 189, N-(2-benzofuran-2-yl-5,7-dimethyl-imidazo[1,2-a]pyridin-3-yl)-N-(2,6-dimethylphenyl)-acetamide]
69%	CC(=O)N(c1c(-c2ccco2)nc2cc(C)ccn12)C(C)(C)C [Example 190, N-tert-butyl-N-(2-furan-2-yl-7-methyl-imidazo[1,2-a]pyridin-3-yl)-acetamide]
57%	CC(=O)N(c1c(-c2ccccn2)nc2cc(C)ccn12)C(C)(C)C [Example 191, N-tert-butyl-N-(7-methyl-2-pyridin-2-yl-imidazo[1,2-a]pyridin-3-yl)-acetamide]
72%	CC(=O)N(c1c(-c2cccnc2)nc2cc(C)cc(C)n12)C1CCCCC1 [Example 192, N-cyclohexyl-N-(5,7-dimethyl-2-pyridin-3-yl-imidazo[1,2-a]pyridin-3-yl)-acetamide]
55%	CC(=O)N(c1c(-c2cccc(Cl)c2Cl)nc2cc(C)cc(C)n12)C(C)(C)CC(C)(C)C [Example 193, N-[2-(2,3-dichloro-phenyl)-5,7-dimethyl-imidazo[1,2-a]pyridin-3-yl]-N-(1,1,3,3-tetramethyl-butyl)-acetamide]
59%	COc1cccc(-c2nc3cc(C)cc(C)n3c2N(C(C)=O)C(C)(C)CC(C)(C)C)c1OC [Example 194, N-[2-(2,3-dimethoxy-phenyl)-5,7-dimethyl-imidazo[1,2-a]pyridin-3-yl]-N-(1,1,3,3-tetramethyl-butyl)-acetamide]
54%	CC(=O)N(c1c(C)cccc1C)c1c(-c2cccc(Oc3ccc(Cl)cc3)c2)nc2ccccn12 [Example 195, N-{2-[3-(4-chloro-phenoxy)-phenyl]-imidazo[1,2-a]pyridin-3-yl}-N-(2,6-dimethyl-phenyl)-acetamide]
54%	CC(=O)N(c1c(-c2ccc(C3OCCO3)o2)nc2cc(C)ccn12)C(C)(C)CC(C)(C)C [Example 196, N-[2-(5-[1,3]dioxolan-2-yl-furan-2-yl)-7-methyl-imidazo[1,2-a]pyridin-3-yl]-N-(1,1,3,3-tetramethyl-butyl)-acetamide]
70%	CC(=O)N(c1c(-c2ccc(C(=O)O)o2)nc2cc(C)cc(C)n12)C1CCCCC1 [Example 197, 5-[3-(acetyl-cyclohexyl-amino)-5,7-dimethyl-imidazo[1,2-a]pyridin-2-yl]-furan-2-carboxylic acid]
54%	CC(=O)N(c1c(-c2ccc([N+](=O)[O-])o2)nc2cc(C)ccn12)C(C)(C)C [Example 198, N-tert-butyl-N-[7-methyl-2-(5-nitro-furan-2-yl)-imidazo[1,2-a]pyridin-3-yl]-acetamide]
57%	COc1ccccc1-c1nc2cc(C)ccn2c1N(C(C)=O)C(C)(C)CC(C)(C)C [Example 199, N-[2-(2-methoxy-phenyl)-7-methyl-imidazo[1,2-a]pyridin-3-yl]-N-(1,1,3,3-tetramethyl-butyl)-acetamide]
